“And” between values parts separate entries of the source, which are not always exact repeats. Identical values can stand only once. Like-named read-outs stand apart in the source and are kept apart here. One block for each compound: values may come before it.
Columns and labels:
Assay type in all cases: biochemical
human plasmin = biological target: T1, human plasmin (Homo sapiens, UniProt P00747); assay: Inhibition of human plasmin, fluorogenic substrate Mes-DArg-Phe-Arg-AMC
T1 construct: purchased Calbiochem
T1 sequence (P00747 581-810): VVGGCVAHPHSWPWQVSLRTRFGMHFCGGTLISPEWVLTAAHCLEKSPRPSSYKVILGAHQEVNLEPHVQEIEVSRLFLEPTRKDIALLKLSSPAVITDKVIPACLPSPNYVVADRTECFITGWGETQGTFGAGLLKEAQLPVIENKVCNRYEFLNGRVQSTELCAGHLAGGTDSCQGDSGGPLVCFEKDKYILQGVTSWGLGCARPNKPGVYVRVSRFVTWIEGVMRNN
T1 sequence (P00747 97-580): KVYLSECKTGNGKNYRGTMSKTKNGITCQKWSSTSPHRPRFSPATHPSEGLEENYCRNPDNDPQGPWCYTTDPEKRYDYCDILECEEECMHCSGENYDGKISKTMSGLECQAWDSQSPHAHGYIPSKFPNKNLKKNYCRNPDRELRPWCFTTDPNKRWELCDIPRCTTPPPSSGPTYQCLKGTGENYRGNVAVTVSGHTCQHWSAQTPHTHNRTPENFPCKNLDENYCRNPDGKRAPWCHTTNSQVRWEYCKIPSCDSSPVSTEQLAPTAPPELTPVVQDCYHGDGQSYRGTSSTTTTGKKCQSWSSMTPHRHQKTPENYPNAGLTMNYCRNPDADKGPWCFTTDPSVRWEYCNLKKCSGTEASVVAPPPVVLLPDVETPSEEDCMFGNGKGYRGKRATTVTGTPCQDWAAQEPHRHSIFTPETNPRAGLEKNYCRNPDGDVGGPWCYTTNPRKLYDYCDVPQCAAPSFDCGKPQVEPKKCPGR
Description: All inhibitors prepared in this study act as reversible competitive plasmin inhibitors, their K i values were calculated by fitting the steady‐state velocities as function of the inhibitor concentrations using equation 1. 4‐aminophenylalanine (Phe(4‐NH2)) was incorporated as P1’ residue in the first inhibitor series, which enabled a macrocyclization via amide bond formation from its side chain amino group using various linker segments and P2’ residues (Table 1). […] The improved potency of SFTI‐1 analogues with basic P2’ residues[9] stimulated the incorporation of Arg in that position leading to inhibitor 4 with a slightly stronger inhibitory potency. A significant improvement could be achieved when using 3‐ or 4‐aminophenylacetic acid as P2’ group in combination with elongated linker residues (5‐6). […] However, inhibitor 9 is a twofold stronger plasmin inhibitor compared to its analogue 8.
For these inhibitors the steady‐state velocities were calculated by fitting the progress curves to equation 2 providing an additional apparent first‐order rate constant k obs for each curve. The steady‐state rates were used for K i determination with equation 1 and the k obs values for the calculation of the association rate constants k on according to equation 3. The dissociation rate constant k off was calculated from the known K i and k on values using equation 4. The enzyme kinetic evaluation of slow‐binding inhibitors of plasmin has already been described in detail in our two previous publications.[11, 12]
All measurements were conducted as triplicates in black 96‐well FluoroNunc MaxiSorp plates (Nunc, Langenselbold, Germany) and suitable fluorogenic substrates at room temperature. […] Each well contained a total volume of 180 μL consisting of 100 μL of inhibitor dissolved in buffer, 40 μL of the substrate Mes‐DArg‐Phe‐Arg‐AMC[11] (100 μM in assay, KM=16.1 μM) dissolved in water and 40 μL of plasmin solution (0.27 nM in assay). The following equations were used for the enzyme kinetic analysis as described in the results section and in our previous publications.[11, 12] (1) [drawing 71] (2) [drawing 72] (3) [drawing 73] (4) [drawing 74]

plasma kallikrein (PK) = plasma kallikrein (PK) (Homo sapiens, UniProt P03952); assay: Selectivity: inhibition of plasma kallikrein; conditions: for PK selectivity index K i(protease)/Ki(plasmin): in brackets; for Ki: read-out: PK K i
Chain of plasma kallikrein (PK) (P03952 391-638): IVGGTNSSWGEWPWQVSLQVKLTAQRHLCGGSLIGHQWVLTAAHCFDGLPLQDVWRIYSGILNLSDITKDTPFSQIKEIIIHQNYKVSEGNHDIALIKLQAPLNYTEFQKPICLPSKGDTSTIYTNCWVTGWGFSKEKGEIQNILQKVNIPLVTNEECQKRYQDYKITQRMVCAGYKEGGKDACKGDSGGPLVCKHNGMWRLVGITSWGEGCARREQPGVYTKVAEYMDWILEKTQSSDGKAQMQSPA
Chain of plasma kallikrein (PK) (P03952 20-390): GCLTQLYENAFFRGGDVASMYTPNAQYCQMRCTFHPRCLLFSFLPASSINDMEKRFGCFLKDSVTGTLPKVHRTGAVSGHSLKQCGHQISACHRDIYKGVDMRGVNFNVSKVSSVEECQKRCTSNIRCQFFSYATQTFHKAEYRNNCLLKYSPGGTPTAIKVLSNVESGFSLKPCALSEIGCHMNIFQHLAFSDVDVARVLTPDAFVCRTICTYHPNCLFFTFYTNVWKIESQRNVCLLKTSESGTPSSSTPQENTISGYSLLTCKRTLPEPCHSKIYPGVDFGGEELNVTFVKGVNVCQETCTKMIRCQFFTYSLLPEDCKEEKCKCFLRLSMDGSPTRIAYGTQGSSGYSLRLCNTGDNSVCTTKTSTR
Description: (§1) For these three proteases a selectivity index (SI=K i(protease)/K i(plasmin)) was calculated, which is provided in brackets after the inhibition constants (Table 3).
(§2) The measurements with the related trypsin‐like serine proteases trypsin, plasma kallikrein, factor XIa, thrombin, activated protein Ca and factor Xa used in selectivity studies were performed as described previously.[11, 12]

factor XIa (fXIa) = factor XIa (fXIa) (Homo sapiens, UniProt P03951); assay: Selectivity: inhibition of factor XIa; conditions: for fXIa selectivity index K i(protease)/Ki(plasmin): in brackets; for Ki: read-out: fXIa K i
Chain of factor XIa (fXIa) (P03951 19-387): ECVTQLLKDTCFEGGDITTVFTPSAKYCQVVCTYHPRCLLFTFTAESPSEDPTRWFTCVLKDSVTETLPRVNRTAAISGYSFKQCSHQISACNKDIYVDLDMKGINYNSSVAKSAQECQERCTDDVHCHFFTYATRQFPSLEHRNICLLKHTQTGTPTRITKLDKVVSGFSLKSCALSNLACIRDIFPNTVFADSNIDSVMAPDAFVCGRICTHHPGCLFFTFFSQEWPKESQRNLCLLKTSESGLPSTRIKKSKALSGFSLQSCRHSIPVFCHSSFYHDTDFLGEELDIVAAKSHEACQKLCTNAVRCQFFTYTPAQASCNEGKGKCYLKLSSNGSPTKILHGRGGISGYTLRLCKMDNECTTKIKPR
Chain of factor XIa (fXIa) (P03951 388-625): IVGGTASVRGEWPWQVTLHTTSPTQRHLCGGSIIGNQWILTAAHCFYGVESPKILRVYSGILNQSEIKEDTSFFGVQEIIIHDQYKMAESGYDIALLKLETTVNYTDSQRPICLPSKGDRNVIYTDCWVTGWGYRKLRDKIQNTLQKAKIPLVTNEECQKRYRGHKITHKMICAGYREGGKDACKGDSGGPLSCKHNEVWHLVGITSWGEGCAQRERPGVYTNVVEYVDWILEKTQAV
Description: as §1, §2

thrombin = thrombin (Homo sapiens, UniProt P00734); assay: Selectivity: inhibition of thrombin; conditions: deduced from pre-assays with only three inhibitor concentrations; read-out: Thrombin K i
Description: as §1, §2

[1] = biological target: activated protein C (aPC) (Homo sapiens, UniProt P04070); assay: Selectivity: inhibition of activated protein C; conditions: deduced from pre-assays with only three inhibitor concentrations; read-out: aPC K i
Chain of activated protein C (aPC) (P04070 43-197): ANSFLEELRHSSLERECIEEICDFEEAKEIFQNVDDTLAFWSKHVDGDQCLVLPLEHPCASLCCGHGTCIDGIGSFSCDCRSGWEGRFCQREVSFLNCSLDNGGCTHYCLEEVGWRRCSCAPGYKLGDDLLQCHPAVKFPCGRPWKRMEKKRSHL
Chain of activated protein C (aPC) (P04070 212-461): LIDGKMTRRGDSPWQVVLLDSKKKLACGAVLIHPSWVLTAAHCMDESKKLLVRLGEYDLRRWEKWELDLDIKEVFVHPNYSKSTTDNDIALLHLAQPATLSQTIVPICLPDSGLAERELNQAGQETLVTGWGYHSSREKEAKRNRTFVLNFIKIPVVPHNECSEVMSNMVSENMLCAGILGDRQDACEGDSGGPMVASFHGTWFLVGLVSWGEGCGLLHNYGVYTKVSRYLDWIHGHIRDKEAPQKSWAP
Description: as §1, §2

factor Xa (fXa) = factor Xa (fXa) (Homo sapiens, UniProt P00742); assay: Selectivity: inhibition of factor Xa; conditions: deduced from pre-assays with only three inhibitor concentrations; read-out: fXa K i
Chain of factor Xa (fXa) (P00742 41-179): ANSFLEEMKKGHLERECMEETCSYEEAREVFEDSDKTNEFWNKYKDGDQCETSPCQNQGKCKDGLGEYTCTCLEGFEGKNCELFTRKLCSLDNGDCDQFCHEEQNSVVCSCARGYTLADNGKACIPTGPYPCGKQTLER
Chain of factor Xa (fXa) (P00742 235-488): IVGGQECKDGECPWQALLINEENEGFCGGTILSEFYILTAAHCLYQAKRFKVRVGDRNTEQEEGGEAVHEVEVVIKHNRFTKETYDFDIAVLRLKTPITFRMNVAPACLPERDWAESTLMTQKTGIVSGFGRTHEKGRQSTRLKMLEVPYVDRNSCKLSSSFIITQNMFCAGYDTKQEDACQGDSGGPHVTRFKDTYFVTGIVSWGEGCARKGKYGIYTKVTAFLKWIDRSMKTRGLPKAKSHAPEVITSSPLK
Description: as §1, §2

[2] = K i (nM), inhibition of plasmin, series two, substituted Bpa in P1', and acyclic analogues, steady-state velocities, equation 1
[3] = Plasmin K i, Table 3 selectivity

fold stronger plasmin inhibition than acyclic analogues 46 and 47 (human plasmin): approximately 75 fold | Ki (human plasmin; [2]): 0.83 nM and 0.832 nM | Ki (human plasmin; [3]): 0.832 nM | PK selectivity index K i(protease)/Ki(plasmin) (plasma kallikrein (PK)): 38 | Ki (plasma kallikrein (PK)): 0.031 ± 0.014 µM | fXIa selectivity index K i(protease)/Ki(plasmin) (factor XIa (fXIa)): 49 | Ki (factor XIa (fXIa)): 0.041 ± 0.0032 µM | Ki (thrombin): > 60 µM | Ki [1]: > 35 µM | Ki (factor Xa (fXa)): > 8 µM
Structure (SMILES): Cc1ccc2cc1NC(=O)CNC(=O)CCCNC(=O)Cc1ccc(cc1)NC(=O)[C@@H](NC(=O)[C@H]1CC[C@H](CN)CC1)Cc1ccc-2cc1 [inhibitor 28]

Ki (human plasmin; [2]): 62.6 ± 2.3 nM
Structure (SMILES): Cc1ccc2cc1NC(=O)CNC(=O)CCCCNC(=O)Cc1ccc(cc1)NC(=O)[C@@H](NC(=O)[C@H]1CC[C@H](CN)CC1)Cc1ccc-2cc1 [inhibitor 29]

Ki (human plasmin; [2]): 2.08 ± 0.05 nM | Ki (human plasmin; [3]): 2.08 nM | PK selectivity index K i(protease)/Ki(plasmin) (plasma kallikrein (PK)): 30 | Ki (plasma kallikrein (PK)): 0.06 ± 0.012 µM | fXIa selectivity index K i(protease)/Ki(plasmin) (factor XIa (fXIa)): 23 | Ki (factor XIa (fXIa)): 0.047 ± 0.002 µM | Ki (thrombin): > 30 µM | Ki [1]: > 5 µM | Ki (factor Xa (fXa)): > 80 µM
Structure (SMILES): Cc1ccc2cc1NC(=O)C(Cc1ccccc1)NC(=O)CCCNC(=O)Cc1ccc(cc1)NC(=O)C(NC(=O)C1CCC(CN)CC1)Cc1ccc-2cc1 (centres unmarked) [inhibitor 30]

Ki (human plasmin; [2]): 1.46 ± 0.07 nM | Ki (human plasmin; [3]): 1.46 nM | PK selectivity index K i(protease)/Ki(plasmin) (plasma kallikrein (PK)): 11 | Ki (plasma kallikrein (PK)): 0.015 ± 0.001 µM | fXIa selectivity index K i(protease)/Ki(plasmin) (factor XIa (fXIa)): 4 | Ki (factor XIa (fXIa)): 0.0053 ± 0.0014 µM | Ki (thrombin): > 25 µM | Ki [1]: > 20 µM | Ki (factor Xa (fXa)): > 5 µM
Structure (SMILES): NC[C@H]1CC[C@H](C(=O)N[C@H]2Cc3ccc(cc3)-c3ccc(C(=O)Nc4ccccc4)c(c3)NC(=O)CNC(=O)CCCNC(=O)Cc3ccc(cc3)NC2=O)CC1 [inhibitor 32]

Ki (human plasmin; [2]): 0.52 nM and 0.524 nM | Ki (human plasmin; [3]): 0.524 nM | PK selectivity index K i(protease)/Ki(plasmin) (plasma kallikrein (PK)): 21 | Ki (plasma kallikrein (PK)): 0.0094 ± 0.0021 µM | fXIa selectivity index K i(protease)/Ki(plasmin) (factor XIa (fXIa)): 18 | Ki (factor XIa (fXIa)): 0.0081 ± 0.0016 µM | Ki (thrombin): > 45 µM | Ki [1]: > 35 µM | Ki (factor Xa (fXa)): > 10 µM
Structure (SMILES): CC(C)NC(=O)c1ccc2cc1NC(=O)CNC(=O)CCCNC(=O)Cc1ccc(cc1)NC(=O)C(NC(=O)C1CCC(CN)CC1)Cc1ccc-2cc1 [inhibitor 33, (S)‐4‐((1r,4S)‐4‐(aminomethyl)cyclohexane‐1‐carboxamido)‐N‐isopropyl‐5,9,14,17‐tetraoxo‐6,10,15,18‐tetraaza‐1(1,3),2,7(1,4)‐tribenzenacyclooctadecaphane‐14‐carboxamide]

Ki (human plasmin; [2]): 36.5 ± 0.7 nM
Structure (SMILES): Cc1ccc2cc1NC(=O)[C@H](N)CCCCNC(=O)Cc1ccc(cc1)NC(=O)[C@@H](NC(=O)[C@H]1CC[C@H](CN)CC1)Cc1ccc-2cc1 [inhibitor 34]

Ki (human plasmin; [2]): 29.8 ± 1.6 nM
Structure (SMILES): Cc1ccc2cc1NC(=O)[C@@H](N)CCCCNC(=O)Cc1ccc(cc1)NC(=O)[C@@H](NC(=O)[C@H]1CC[C@H](CN)CC1)Cc1ccc-2cc1 [inhibitor 35]

Ki (human plasmin; [2]): 112 ± 6 nM
Structure (SMILES): Cc1ccc2cc1NC(=O)CCCN1CCN(CC1)C(=O)Cc1ccc(cc1)NC(=O)[C@@H](NC(=O)[C@H]1CC[C@H](CN)CC1)Cc1ccc-2cc1 [inhibitor 36]

Ki (human plasmin; [2]): 13 ± 0.2 nM
Structure (SMILES): Cc1ccc2cc1NC(=O)CCN1CCN(CC1)C(=O)Cc1ccc(cc1)NC(=O)[C@@H](NC(=O)[C@H]1CC[C@H](CN)CC1)Cc1ccc-2cc1 [inhibitor 37]

Ki (human plasmin; [2]): 35.7 ± 1.1 nM
Structure (SMILES): Cc1ccc2cc1NC(=O)CN1CCN(CC1)C(=O)Cc1ccc(cc1)NC(=O)[C@@H](NC(=O)[C@H]1CC[C@H](CN)CC1)Cc1ccc-2cc1 [inhibitor 38]

Ki (human plasmin; [2]): 26.9 ± 0.5 nM
Structure (SMILES): Cc1ccc2cc1NC(=O)CNC(=O)CCCCNC(=O)Cc1cccc(c1)NC(=O)[C@@H](NC(=O)[C@H]1CC[C@H](CN)CC1)Cc1ccc-2cc1 [inhibitor 39]

Ki (human plasmin; [2]): 20.6 ± 0.5 nM
Structure (SMILES): Cc1ccc2cc1NC(=O)CNC(=O)CCNC(=O)Cc1cccc(c1)NC(=O)[C@@H](NC(=O)[C@H]1CC[C@H](CN)CC1)Cc1ccc-2cc1 [inhibitor 41]

Ki (human plasmin; [2]): 284 ± 24 nM
Structure (SMILES): Cc1ccc2cc1NC(=O)CNC(=O)CCCNC(=O)Cc1cccc(c1)CNC(=O)[C@@H](NC(=O)[C@H]1CC[C@H](CN)CC1)Cc1ccc-2cc1 [inhibitor 42]

Ki (human plasmin; [2]): 5.14 ± 0.27 nM
Structure (SMILES): Cc1ccc2cc1NC(=O)CNC(=O)CCCCNC(=O)c1ccc3cc(ccc3c1)NC(=O)[C@@H](NC(=O)[C@H]1CC[C@H](CN)CC1)Cc1ccc-2cc1 [inhibitor 43]

Ki (human plasmin; read-out: K i (nM), inhibition of plasmin, series two, substituted Bpa in P1', and acyclic analogues, steady-state velocities, equation 1): 10.3 ± 0.2 nM
Structure (SMILES): Cc1ccc2cc1NC(=O)CNC(=O)CCCNC(=O)c1ccc3cc(ccc3c1)NC(=O)[C@@H](NC(=O)[C@H]1CC[C@H](CN)CC1)Cc1ccc-2cc1 [inhibitor 44]

Ki (human plasmin; [2]): 86.1 ± 6.6 nM
Structure (SMILES): Cc1ccc(-c2ccc(C[C@H](NC(=O)[C@H]3CC[C@H](CN)CC3)C(=O)Nc3ccc(CC(=O)NCCCC(=O)NCC(=O)O)cc3)cc2)cc1N [inhibitor 46]

Ki (human plasmin; [2]): 65.1 ± 1.7 nM
Structure (SMILES): Cc1ccc(-c2ccc(C[C@H](NC(=O)[C@H]3CC[C@H](CN)CC3)C(=O)Nc3ccc(CC(=O)NCCCC(=O)NCC(N)=O)cc3)cc2)cc1N [inhibitor 47]
